Source: publication PMC9403976, “Elucidating the path to Plasmodium prolyl-tRNA synthetase inhibitors that overcome halofuginone resistance” (Nature Communications, 2022)
“And” between values parts separate entries of the source, which are not always exact repeats. Equal entries are not always repeated. Where two headings read alike, the source gives them in different places.

Assays:
P. falciparum Dd2-2D4 = test: P. falciparum asexual blood stage (ABS) growth assay, SYBR Green, 72 h, wild-type parasites; assay type: cell-based, Plasmodium falciparum; conditions: Plasmodium falciparum, DD2; SI Fig 16b; values on -log scale; read-out: ABS - Dd2-2D4 (converted)
PfcProRS = target: T1, PfcProRS (Plasmodium falciparum, UniProt Q8I5R7); assay type: binding; conditions: for dose-response signal (normalized), SI Fig 8: single replicates
T1 construct: made in house; host or cells: E. coli SoluBL-21

HsProRS = HsProRS (Homo sapiens, UniProt P07814); test: TR-FRET ligand displacement assay with tracer MAT379 (CoraFluor-1-Halo and anti-His6 antibody formats); assay type: binding; parameters: made in house; host or cells: E. coli SoluBL-21; conditions: for TR-FRET dose-response, normalized signal (SI Fig 11): individual replicates
Sequence of HsProRS (P07814 996-1512): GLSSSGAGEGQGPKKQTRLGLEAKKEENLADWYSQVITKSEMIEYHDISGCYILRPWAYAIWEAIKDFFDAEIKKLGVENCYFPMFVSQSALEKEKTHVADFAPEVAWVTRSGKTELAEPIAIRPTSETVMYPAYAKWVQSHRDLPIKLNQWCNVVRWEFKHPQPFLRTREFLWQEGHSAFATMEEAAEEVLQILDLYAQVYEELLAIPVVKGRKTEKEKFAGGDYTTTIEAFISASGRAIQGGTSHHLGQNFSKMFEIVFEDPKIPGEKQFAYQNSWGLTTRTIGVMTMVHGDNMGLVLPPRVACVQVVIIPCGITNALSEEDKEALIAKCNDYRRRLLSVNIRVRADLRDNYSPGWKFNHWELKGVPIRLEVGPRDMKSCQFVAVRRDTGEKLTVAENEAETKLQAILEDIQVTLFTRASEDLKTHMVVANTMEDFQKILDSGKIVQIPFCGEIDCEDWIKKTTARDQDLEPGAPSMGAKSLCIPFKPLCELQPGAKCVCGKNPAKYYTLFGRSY

T1 sequence (Q8I5R7 249-746): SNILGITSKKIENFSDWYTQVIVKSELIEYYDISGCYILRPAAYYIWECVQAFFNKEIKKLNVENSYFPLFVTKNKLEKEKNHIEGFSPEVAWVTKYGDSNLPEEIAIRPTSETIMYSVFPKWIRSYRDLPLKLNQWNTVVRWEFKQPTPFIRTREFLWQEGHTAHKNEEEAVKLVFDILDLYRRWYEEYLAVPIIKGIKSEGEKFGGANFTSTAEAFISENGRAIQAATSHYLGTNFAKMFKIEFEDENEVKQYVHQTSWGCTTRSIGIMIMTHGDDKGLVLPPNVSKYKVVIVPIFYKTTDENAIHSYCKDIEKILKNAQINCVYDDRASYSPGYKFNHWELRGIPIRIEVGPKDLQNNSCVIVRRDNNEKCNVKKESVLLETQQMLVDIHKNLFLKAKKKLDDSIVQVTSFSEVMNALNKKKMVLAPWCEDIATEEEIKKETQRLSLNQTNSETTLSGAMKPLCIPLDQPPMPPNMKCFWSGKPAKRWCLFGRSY

O=C(Nc1nccnc1C(=O)NC1Cc2ccccc2C1)c1ccccc1 [compound 21]
EC50 (P. falciparum Dd2-2D4): 9.59 µM | dose-response signal (normalized), SI Fig 8 (PfcProRS; Log[inhibitor] (M) -5.000): 2.91E-01 and 3.96E-01 and 3.40E-01 | dose-response signal (normalized), SI Fig 8 (PfcProRS; Log[inhibitor] (M) -5.301): 6.52E-01 and 5.68E-01 and 6.33E-01 | dose-response signal (normalized), SI Fig 8 (PfcProRS; Log[inhibitor] (M) -5.601): 7.76E-01 and 6.88E-01 and 8.76E-01 | dose-response signal (normalized), SI Fig 8 (PfcProRS; Log[inhibitor] (M) -5.904): 1.01E+00 and 9.17E-01 and 9.47E-01 | dose-response signal (normalized), SI Fig 8 (PfcProRS; Log[inhibitor] (M) -6.208): 1.01E+00 and 1.00E+00 and 8.81E-01 | dose-response signal (normalized), SI Fig 8 (PfcProRS; Log[inhibitor] (M) -6.509): 9.40E-01 and 8.71E-01 and 1.01E+00 | dose-response signal (normalized), SI Fig 8 (PfcProRS; Log[inhibitor] (M) -6.796): 1.06E+00 and 9.99E-01 and 1.08E+00 | dose-response signal (normalized), SI Fig 8 (PfcProRS; Log[inhibitor] (M) -7.108): 9.00E-01 and 9.54E-01 and 9.75E-01 | dose-response signal (normalized), SI Fig 8 (PfcProRS; Log[inhibitor] (M) -7.409): 1.04E+00 and 1.03E+00 and 9.91E-01 | dose-response signal (normalized), SI Fig 8 (PfcProRS; Log[inhibitor] (M) -7.710): 9.51E-01 and 8.62E-01 and 1.00E+00 | dose-response signal (normalized), SI Fig 8 (PfcProRS; Log[inhibitor] (M) -8.000): 9.32E-01 and 1.04E+00 and 9.09E-01 | dose-response signal (normalized), SI Fig 8 (PfcProRS; Log[inhibitor] (M) -8.301): 9.87E-01 and 9.76E-01 and 8.57E-01 | dose-response signal (normalized), SI Fig 8 (PfcProRS; Log[inhibitor] (M) -8.602): 1.04E+00 (2×) and 9.76E-01 | dose-response signal (normalized), SI Fig 8 (PfcProRS; Log[inhibitor] (M) -9.000): 9.49E-01 and 9.11E-01 and 1.01E+00 | dose-response signal (normalized), SI Fig 8 (PfcProRS; Log[inhibitor] (M) -9.301): 1.10E+00 and 1.02E+00 and 1.05E+00 | PfcProRS -- best Kd (PfcProRS; SI Fig 16a, values on -log scale): 5.845 | Kd (HsProRS; HsProRS (KD [nM]) mean, no added proline/ATP (-)): 7830 nM | Kd (HsProRS; HsProRS - best Kd, SI Fig 16a, values on -log scale): 140 nM | normalized TR-FRET ligand displacement signal, dose-response replicates (SI Fig 6) (HsProRS; Log[inhibitor] (M) -5.000): 5.46E-01 and 5.55E-01 and 4.94E-01 | TR-FRET dose-response, normalized signal (SI Fig 11) (HsProRS; Log[inhibitor] (M) -5.000): 4.76E-01 and 4.38E-01 and 4.70E-01 | normalized TR-FRET ligand displacement signal, dose-response replicates (SI Fig 6) (HsProRS; Log[inhibitor] (M) -5.301): 7.40E-01 and 7.43E-01 and 7.80E-01 | TR-FRET dose-response, normalized signal (SI Fig 11) (HsProRS; Log[inhibitor] (M) -5.301): 6.10E-01 and 6.26E-01 and 6.30E-01 | normalized TR-FRET ligand displacement signal, dose-response replicates (SI Fig 6) (HsProRS; Log[inhibitor] (M) -5.601): 9.19E-01 and 8.75E-01 and 9.42E-01 | TR-FRET dose-response, normalized signal (SI Fig 11) (HsProRS; Log[inhibitor] (M) -5.601): 7.50E-01 and 7.65E-01 and 7.70E-01 | normalized TR-FRET ligand displacement signal, dose-response replicates (SI Fig 6) (HsProRS; Log[inhibitor] (M) -5.904): 9.17E-01 and 1.01E+00 and 8.04E-01 | TR-FRET dose-response, normalized signal (SI Fig 11) (HsProRS; Log[inhibitor] (M) -5.904): 8.93E-01 and 9.01E-01 and 8.63E-01 | normalized TR-FRET ligand displacement signal, dose-response replicates (SI Fig 6) (HsProRS; Log[inhibitor] (M) -6.208): 9.67E-01 and 9.54E-01 and 1.10E+00 | TR-FRET dose-response, normalized signal (SI Fig 11) (HsProRS; Log[inhibitor] (M) -6.208): 8.73E-01 and 9.00E-01 and 9.32E-01 | normalized TR-FRET ligand displacement signal, dose-response replicates (SI Fig 6) (HsProRS; Log[inhibitor] (M) -6.509): 9.94E-01 and 9.87E-01 and 9.37E-01 | TR-FRET dose-response, normalized signal (SI Fig 11) (HsProRS; Log[inhibitor] (M) -6.509): 9.94E-01 and 8.74E-01 and 9.48E-01 | normalized TR-FRET ligand displacement signal, dose-response replicates (SI Fig 6) (HsProRS; Log[inhibitor] (M) -6.796): 1.04E+00 (2×) and 9.65E-01 | TR-FRET dose-response, normalized signal (SI Fig 11) (HsProRS; Log[inhibitor] (M) -6.796): 9.17E-01 and 9.74E-01 and 9.27E-01 | normalized TR-FRET ligand displacement signal, dose-response replicates (SI Fig 6) (HsProRS; Log[inhibitor] (M) -7.108): 1.01E+00 and 1.08E+00 and 1.09E+00 | TR-FRET dose-response, normalized signal (SI Fig 11) (HsProRS; Log[inhibitor] (M) -7.108): 9.75E-01 and 8.96E-01 and 1.01E+00 | normalized TR-FRET ligand displacement signal, dose-response replicates (SI Fig 6) (HsProRS; Log[inhibitor] (M) -7.409): 1.16E+00 and 9.90E-01 and 9.46E-01 | TR-FRET dose-response, normalized signal (SI Fig 11) (HsProRS; Log[inhibitor] (M) -7.409): 9.43E-01 and 9.53E-01 and 9.38E-01 | normalized TR-FRET ligand displacement signal, dose-response replicates (SI Fig 6) (HsProRS; Log[inhibitor] (M) -7.710): 1.13E+00 and 9.28E-01 and 1.00E+00 | TR-FRET dose-response, normalized signal (SI Fig 11) (HsProRS; Log[inhibitor] (M) -7.710): 1.01E+00 and 9.57E-01 and 9.99E-01 | normalized TR-FRET ligand displacement signal, dose-response replicates (SI Fig 6) (HsProRS; Log[inhibitor] (M) -8.000): 1.06E+00 and 9.95E-01 and 9.77E-01 | TR-FRET dose-response, normalized signal (SI Fig 11) (HsProRS; Log[inhibitor] (M) -8.000): 9.75E-01 and 9.47E-01 and 9.43E-01 | normalized TR-FRET ligand displacement signal, dose-response replicates (SI Fig 6) (HsProRS; Log[inhibitor] (M) -8.301): 9.85E-01 and 1.04E+00 and 1.05E+00 | TR-FRET dose-response, normalized signal (SI Fig 11) (HsProRS; Log[inhibitor] (M) -8.301): 8.99E-01 and 9.31E-01 and 9.94E-01 | normalized TR-FRET ligand displacement signal, dose-response replicates (SI Fig 6) (HsProRS; Log[inhibitor] (M) -8.602): 9.47E-01 and 9.26E-01 and 9.87E-01 | TR-FRET dose-response, normalized signal (SI Fig 11) (HsProRS; Log[inhibitor] (M) -8.602): 9.70E-01 and 9.30E-01 and 9.54E-01 | normalized TR-FRET ligand displacement signal, dose-response replicates (SI Fig 6) (HsProRS; Log[inhibitor] (M) -9.000): 9.16E-01 and 9.83E-01 and 9.58E-01 | TR-FRET dose-response, normalized signal (SI Fig 11) (HsProRS; Log[inhibitor] (M) -9.000): 9.06E-01 and 1.03E+00 and 9.30E-01 | normalized TR-FRET ligand displacement signal, dose-response replicates (SI Fig 6) (HsProRS; Log[inhibitor] (M) -9.301): 8.87E-01 and 1.01E+00 (2×) | TR-FRET dose-response, normalized signal (SI Fig 11) (HsProRS; Log[inhibitor] (M) -9.301): 9.47E-01 and 9.42E-01 and 9.85E-01
